# Key:
# [1] = Serum mycophenolic acid level by commercial assay in mice fed MMF in chow; type: in vivo, mouse
# Description: No MPA was detected in the serum of control mice (data not shown).
# [2] = test system: endothelial nitric oxide synthase (eNOS) expression; conditions: in vitro, cholesterol clamped conditions; cited from earlier work
average serum mycophenolic acid (MPA) level ([1]; high-dose group (MMF 100 mg/kg/day in high-fat chow)),average serum mycophenolic acid (MPA) level ([1]; low-dose group (MMF 15 mg/kg/day in high-fat chow)),Structure (SMILES),upregulation of eNOS expression [2]
3.65 ± 0.3 mg/L,1.16 ± 0.09 mg/L,"COc1c(C)c2c(c(O)c1C/C=C(\C)CCC(=O)O)C(=O)OC2 [MPA, mycophenolic acid]",–
–,–,CC[C@H](C)C(=O)O[C@H]1C[C@@H](C)C=C2C=C[C@H](C)[C@H](CC[C@@H]3C[C@@H](O)CC(=O)O3)[C@H]21 [lovastatin],almost fourfold

# Reference: patent US20110306608A1, “COMPOSITIONS AND METHODS FOR TREATING VASCULAR, AUTOIMMUNE AND INFLAMMATORY DISEASES” (priority 2005, published 2011)
